Assay results as given in patent US11013817B2, “Nanoparticles for drug delivery to treat bone disease” (The Cleveland Clinic Foundation, priority 2016, dated 2021).

Experiments:
[1] = Solid state solubility of PTX and TXT in polymers (phase separation in cast films); type: physicochemical; parameters: key: +ve: Phase separation; −ve: No phase separation
Description: For this example, polymer and drug solutions in chloroform at different % of drug to polymer were casted into films on glass slides. Following solvent evaporation of chloroform in a chemical hood overnight, the casted films were observed under a light microscope. Phase separation was clearly evident from crystallization of the drug in the polymer film whereas the films were homogeneous when there was no phase separation.

DU145 cells = assay: Cytotoxicity of TXT and TXT-NPs in DU145 cells; type: cell-based; details: DU145, 5 day
Description: (§1) In order to confirm the efficacy of TXT NPs, we determined IC50 of the drug and drug encapsulated in NPs in PC-3 and DU145 cells.

PC-3 cells = assay: Cytotoxicity of TXT and TXT-NPs in PC-3 cells; type: cell-based; details: for IC50 / IC90: Homo sapiens
Description: as §1

- Phase Separation ([1]; drug 1% w/w, polymer inherent viscosity 0.16 dL/g, Lactide/Glycolide 50/50): −
- Phase Separation ([1]; drug 1% w/w, polymer inherent viscosity 0.18 dL/g, Lactide/Glycolide 75/25): +
- Phase Separation ([1]; drug 1% w/w, polymer inherent viscosity 0.26-0.54 dL/g, Lactide/Glycolide 50/50, Ester Terminated): +
- Phase Separation ([1]; drug 1% w/w, polymer inherent viscosity 0.39 dL/g, Lactide/Glycolide 50/50): −
- Phase Separation ([1]; drug 1% w/w, polymer inherent viscosity 0.55-0.75 dL/g, Lactide/Glycolide 50/50, Carbohydrate end Group): +
- Phase Separation ([1]; drug 1% w/w, polymer inherent viscosity 0.63 dL/g, Lactide/Glycolide 85/15): +
- Phase Separation ([1]; drug 1% w/w, polymer inherent viscosity 0.64 dL/g, Lactide/Glycolide 65/35): +
- Phase Separation ([1]; drug 1% w/w, polymer inherent viscosity 0.64 dL/g, Lactide/Glycolide 75/25): +
- Phase Separation ([1]; drug 1% w/w, polymer inherent viscosity 0.67 dL/g, Lactide/Glycolide 65/35): −
- Phase Separation ([1]; drug 1% w/w, polymer inherent viscosity 0.69 dL/g, Lactide/Glycolide 50/50 (first of two such lines, r12)): −
- Phase Separation ([1]; drug 1% w/w, polymer inherent viscosity 0.69 dL/g, Lactide/Glycolide 50/50 (second of two such lines, r13)): +
- Phase Separation ([1]; drug 1% w/w, polymer inherent viscosity 0.76-0.94 dL/g, Lactide/Glycolide 50/50): +
- Phase Separation ([1]; drug 1% w/w, polymer inherent viscosity 0.87 dL/g, Lactide/Glycolide 50/50): +
- Phase Separation ([1]; drug 1% w/w, polymer inherent viscosity 0.95-1.20 dL/g, Lactide/Glycolide 50/50): −
- Phase Separation ([1]; drug 1% w/w, polymer inherent viscosity 1.15 dL/g, Lactide/Glycolide 50/50): +
- Phase Separation ([1]; drug 1% w/w, polymer inherent viscosity 1.24 dL/g, Lactide/Glycolide 50/50): +
- Phase Separation ([1]; drug 5% w/w, polymer inherent viscosity 0.16 dL/g, Lactide/Glycolide 50/50): −
- Phase Separation ([1]; drug 5% w/w, polymer inherent viscosity 0.18 dL/g, Lactide/Glycolide 75/25): +
- Phase Separation ([1]; drug 5% w/w, polymer inherent viscosity 0.26-0.54 dL/g, Lactide/Glycolide 50/50, Ester Terminated): +
- Phase Separation ([1]; drug 5% w/w, polymer inherent viscosity 0.39 dL/g, Lactide/Glycolide 50/50): −
- Phase Separation ([1]; drug 5% w/w, polymer inherent viscosity 0.55-0.75 dL/g, Lactide/Glycolide 50/50, Carbohydrate end Group): +
- Phase Separation ([1]; drug 5% w/w, polymer inherent viscosity 0.63 dL/g, Lactide/Glycolide 85/15): +
- Phase Separation ([1]; drug 5% w/w, polymer inherent viscosity 0.64 dL/g, Lactide/Glycolide 65/35): +
- Phase Separation ([1]; drug 5% w/w, polymer inherent viscosity 0.64 dL/g, Lactide/Glycolide 75/25): +
- Phase Separation ([1]; drug 5% w/w, polymer inherent viscosity 0.67 dL/g, Lactide/Glycolide 65/35): +
- Phase Separation ([1]; drug 5% w/w, polymer inherent viscosity 0.69 dL/g, Lactide/Glycolide 50/50 (first of two such lines, r12)): −
- Phase Separation ([1]; drug 5% w/w, polymer inherent viscosity 0.69 dL/g, Lactide/Glycolide 50/50 (second of two such lines, r13)): +
- Phase Separation ([1]; drug 5% w/w, polymer inherent viscosity 0.76-0.94 dL/g, Lactide/Glycolide 50/50): +
- Phase Separation ([1]; drug 5% w/w, polymer inherent viscosity 0.87 dL/g, Lactide/Glycolide 50/50): +
- Phase Separation ([1]; drug 5% w/w, polymer inherent viscosity 0.95-1.20 dL/g, Lactide/Glycolide 50/50): −
- Phase Separation ([1]; drug 5% w/w, polymer inherent viscosity 1.15 dL/g, Lactide/Glycolide 50/50): +
- Phase Separation ([1]; drug 5% w/w, polymer inherent viscosity 1.24 dL/g, Lactide/Glycolide 50/50): +
- Phase Separation ([1]; drug 10% w/w, polymer inherent viscosity 0.16 dL/g, Lactide/Glycolide 50/50): −
- Phase Separation ([1]; drug 10% w/w, polymer inherent viscosity 0.18 dL/g, Lactide/Glycolide 75/25): +
- Phase Separation ([1]; drug 10% w/w, polymer inherent viscosity 0.26-0.54 dL/g, Lactide/Glycolide 50/50, Ester Terminated): +
- Phase Separation ([1]; drug 10% w/w, polymer inherent viscosity 0.39 dL/g, Lactide/Glycolide 50/50): −
- Phase Separation ([1]; drug 10% w/w, polymer inherent viscosity 0.55-0.75 dL/g, Lactide/Glycolide 50/50, Carbohydrate end Group): +
- Phase Separation ([1]; drug 10% w/w, polymer inherent viscosity 0.63 dL/g, Lactide/Glycolide 85/15): +
- Phase Separation ([1]; drug 10% w/w, polymer inherent viscosity 0.64 dL/g, Lactide/Glycolide 65/35): +
- Phase Separation ([1]; drug 10% w/w, polymer inherent viscosity 0.64 dL/g, Lactide/Glycolide 75/25): +
- Phase Separation ([1]; drug 10% w/w, polymer inherent viscosity 0.67 dL/g, Lactide/Glycolide 65/35): +
- Phase Separation ([1]; drug 10% w/w, polymer inherent viscosity 0.69 dL/g, Lactide/Glycolide 50/50 (first of two such lines, r12)): −
- Phase Separation ([1]; drug 10% w/w, polymer inherent viscosity 0.69 dL/g, Lactide/Glycolide 50/50 (second of two such lines, r13)): +
- Phase Separation ([1]; drug 10% w/w, polymer inherent viscosity 0.76-0.94 dL/g, Lactide/Glycolide 50/50): +
- Phase Separation ([1]; drug 10% w/w, polymer inherent viscosity 0.87 dL/g, Lactide/Glycolide 50/50): +
- Phase Separation ([1]; drug 10% w/w, polymer inherent viscosity 0.95-1.20 dL/g, Lactide/Glycolide 50/50): −
- Phase Separation ([1]; drug 10% w/w, polymer inherent viscosity 1.15 dL/g, Lactide/Glycolide 50/50): +
- Phase Separation ([1]; drug 10% w/w, polymer inherent viscosity 1.24 dL/g, Lactide/Glycolide 50/50): +
- Phase Separation ([1]; drug 15% w/w, polymer inherent viscosity 0.16 dL/g, Lactide/Glycolide 50/50): −
- Phase Separation ([1]; drug 15% w/w, polymer inherent viscosity 0.18 dL/g, Lactide/Glycolide 75/25): +
- Phase Separation ([1]; drug 15% w/w, polymer inherent viscosity 0.26-0.54 dL/g, Lactide/Glycolide 50/50, Ester Terminated): +
- Phase Separation ([1]; drug 15% w/w, polymer inherent viscosity 0.39 dL/g, Lactide/Glycolide 50/50): −
- Phase Separation ([1]; drug 15% w/w, polymer inherent viscosity 0.55-0.75 dL/g, Lactide/Glycolide 50/50, Carbohydrate end Group): +
- Phase Separation ([1]; drug 15% w/w, polymer inherent viscosity 0.63 dL/g, Lactide/Glycolide 85/15): +
- Phase Separation ([1]; drug 15% w/w, polymer inherent viscosity 0.64 dL/g, Lactide/Glycolide 65/35): +
- Phase Separation ([1]; drug 15% w/w, polymer inherent viscosity 0.64 dL/g, Lactide/Glycolide 75/25): +
- Phase Separation ([1]; drug 15% w/w, polymer inherent viscosity 0.67 dL/g, Lactide/Glycolide 65/35): +
- Phase Separation ([1]; drug 15% w/w, polymer inherent viscosity 0.69 dL/g, Lactide/Glycolide 50/50 (first of two such lines, r12)): −
- Phase Separation ([1]; drug 15% w/w, polymer inherent viscosity 0.69 dL/g, Lactide/Glycolide 50/50 (second of two such lines, r13)): +
- Phase Separation ([1]; drug 15% w/w, polymer inherent viscosity 0.76-0.94 dL/g, Lactide/Glycolide 50/50): +
- Phase Separation ([1]; drug 15% w/w, polymer inherent viscosity 0.87 dL/g, Lactide/Glycolide 50/50): +
- Phase Separation ([1]; drug 15% w/w, polymer inherent viscosity 0.95-1.20 dL/g, Lactide/Glycolide 50/50): −
- Phase Separation ([1]; drug 15% w/w, polymer inherent viscosity 1.15 dL/g, Lactide/Glycolide 50/50): +
- Phase Separation ([1]; drug 15% w/w, polymer inherent viscosity 1.24 dL/g, Lactide/Glycolide 50/50): +
- Phase Separation ([1]; drug 20% w/w, polymer inherent viscosity 0.16 dL/g, Lactide/Glycolide 50/50): −
- Phase Separation ([1]; drug 20% w/w, polymer inherent viscosity 0.18 dL/g, Lactide/Glycolide 75/25): +
- Phase Separation ([1]; drug 20% w/w, polymer inherent viscosity 0.26-0.54 dL/g, Lactide/Glycolide 50/50, Ester Terminated): +
- Phase Separation ([1]; drug 20% w/w, polymer inherent viscosity 0.39 dL/g, Lactide/Glycolide 50/50): −
- Phase Separation ([1]; drug 20% w/w, polymer inherent viscosity 0.55-0.75 dL/g, Lactide/Glycolide 50/50, Carbohydrate end Group): +
- Phase Separation ([1]; drug 20% w/w, polymer inherent viscosity 0.63 dL/g, Lactide/Glycolide 85/15): +
- Phase Separation ([1]; drug 20% w/w, polymer inherent viscosity 0.64 dL/g, Lactide/Glycolide 65/35): +
- Phase Separation ([1]; drug 20% w/w, polymer inherent viscosity 0.64 dL/g, Lactide/Glycolide 75/25): +
- Phase Separation ([1]; drug 20% w/w, polymer inherent viscosity 0.67 dL/g, Lactide/Glycolide 65/35): +
- Phase Separation ([1]; drug 20% w/w, polymer inherent viscosity 0.69 dL/g, Lactide/Glycolide 50/50 (first of two such lines, r12)): +
- Phase Separation ([1]; drug 20% w/w, polymer inherent viscosity 0.69 dL/g, Lactide/Glycolide 50/50 (second of two such lines, r13)): +
- Phase Separation ([1]; drug 20% w/w, polymer inherent viscosity 0.76-0.94 dL/g, Lactide/Glycolide 50/50): +
- Phase Separation ([1]; drug 20% w/w, polymer inherent viscosity 0.87 dL/g, Lactide/Glycolide 50/50): +
- Phase Separation ([1]; drug 20% w/w, polymer inherent viscosity 0.95-1.20 dL/g, Lactide/Glycolide 50/50): +
- Phase Separation ([1]; drug 20% w/w, polymer inherent viscosity 1.15 dL/g, Lactide/Glycolide 50/50): +
- Phase Separation ([1]; drug 20% w/w, polymer inherent viscosity 1.24 dL/g, Lactide/Glycolide 50/50): +
Structure (SMILES): CC(=O)O[C@@]12CO[C@@H]1C[C@H](O)[C@@]1(C)C(=O)[C@H](O)C3=C(C)[C@@H](OC(=O)[C@H](O)[C@@H](NC(=O)OC(C)(C)C)c4ccccc4)C[C@@](O)([C@@H](OC(=O)c4ccccc4)[C@H]21)C3(C)C [Docetaxel, (2R,3S)-N-carboxy-3-phenylisoserine, N-tert-butyl ester, 13-ester with 5b-20-epoxy-12a,4,7b,10b,13a-hexahydroxytax-11-en-9-one 4-acetate 2-benzoate, trihydrate]
- IC75 (DU145 cells): 1.9 ± 0.03 ng/mL
- IC50 (DU145 cells; Homo sapiens, DU-145, 120 h): 1.5 ± 0.04 ng/mL
- IC90 (DU145 cells; Homo sapiens, DU-145, 120 h): 2.4 ± 0.02 ng/mL
- IC50 (PC-3 cells; PC-3, 72 h, PC3, 3 day): 2.5 ± 0.05 ng/mL
- IC90 (PC-3 cells; PC-3, 72 h, PC3, 3 day): 6.31 ± 0.17 ng/mL
- IC50 (PC-3 cells; PC-3, 120 h, PC3, 5 day): 1.6 ± 0.01 ng/mL
- IC90 (PC-3 cells; PC-3, 120 h, PC3, 5 day): 5 ± 0.07 ng/mL
- IC50 (PC-3 cells; PC-3, 168 h, PC3, 7 day): 1.6 ± 0.01 ng/mL
- IC90 (PC-3 cells; PC-3, 168 h, PC3, 7 day): 4.2 ± 0.08 ng/mL
- IC75 (PC-3 cells; PC3, 3 day): 3.8 ± 0.03 ng/mL
- IC75 (PC-3 cells; PC3, 5 day): 2.5 ± 0.02 ng/mL
- IC75 (PC-3 cells; PC3, 7 day): 2.5 ± 0.01 ng/mL
